According to PMC7582725, “Suppression of hTAS2R16 Signaling by Umami Substances” (International Journal of Molecular Sciences, 2020):
Numbering of substitutions follows the chain as printed. Where “and” joins values, the source holds several entries; their conditions need not be identical. Identical values can stand only once. Counter-ions that a name gives are not always drawn. Like-named read-outs stand apart in the source and are kept apart here.

Assays:
[1] = molecular target: hTAS2R16 (human bitter taste receptor, type 2 taste receptor 16), wild type (human) (UniProt Q9NYV7)
[2] = molecular target: hTAS2R16 (human bitter taste receptor, type 2 taste receptor 16), wild type (human) (UniProt Q9NYV7); remark: listed apart in the source
[3] = molecular target: hTAS2R16 P44T (human) (UniProt Q9NYV7)
[4] = molecular target: hTAS2R16 N96T (human) (UniProt Q9NYV7)
[5] = molecular target: T1, hTAS2R16 (Homo sapiens, UniProt Q9NYV7); details: in the presence of 3 mM salicin; read-out: reported IC50; cited from earlier work
T1 construct: expressed in transfected cells; host or cells: HEK293T
T1 sequence (Q9NYV7 1-291): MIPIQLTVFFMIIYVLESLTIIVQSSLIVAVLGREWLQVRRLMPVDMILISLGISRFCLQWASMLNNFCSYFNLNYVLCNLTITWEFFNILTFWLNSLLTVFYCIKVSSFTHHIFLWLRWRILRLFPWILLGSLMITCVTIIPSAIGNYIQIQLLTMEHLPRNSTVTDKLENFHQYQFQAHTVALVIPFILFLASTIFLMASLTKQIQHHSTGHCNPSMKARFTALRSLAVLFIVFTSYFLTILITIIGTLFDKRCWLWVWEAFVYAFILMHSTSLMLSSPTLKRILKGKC

[6] = molecular target: T1, hTAS2R16; assay: Ca2+ response of hTAS2R16-expressing HEK293T cells to bitter ligands in absence and presence of umami substances (Figure 1; fura-2 F340/F380 imaging / cell-based assay); details: Glu-Glu 6 mM, Gly-Gly 6 mM; for inhibition of Ca2+ response to arbutin: 5 mM arbutin; for inhibition of Ca2+ response to arbutin / inhibition of Ca2+ response to phenyl β-D-glucopyranoside: MSG 80 mM, IMP 20 mM, L-theanine 80 mM
Experimental: We first verified if non-peptide umami substances affect the downstream signaling mechanism, such as changes in intracellular Ca^2+ of the human bitter taste receptor. […] The increase in fluorescence intensity ratio (F340/F380) with 10 mM salicin was expressed as 100. […] In addition to salicin, hTAS2R16 also recognizes bitter sugars such as phenyl β-D-glucopyranoside and arbutin, a glycosylated hydroquinone extracted from the bearberry plant in the genus Arctostaphylos.
(A) Chemical structures of tested compounds. Summarized data (B) and representative traces (C) showing responses of HEK293T cells co-expressing hTAS2R16 and Gα16gust44 to 10 mM salicin in the absence and presence of umami substances in a cell-based assay. (D,E) Representative ratiometric images of fura-2-loaded hTAS2R16-expressing cells in response to the other ligands, 5 mM arbutin (D) or phenyl β-D-glucopyranoside (E), in the presence of umami substances. The data were normalized as percentages to the maximal signal obtained with the ligands. The color scale indicates the F340/F380 ratio. Scale bar: 11.04 μm. Data are presented as means ± standard error of the mean (SEM) of at least three separate experiments. * p < 0.05, ** p < 0.01, and *** p < 0.001 vs. the 0 mM sample group by Student’s t-test.
The umami substances-induced changes in the cytosolic Ca^2+ concentration were measured using a FlexStation III microplate reader (Molecular Devices, Sunnyvale, CA, USA). HEK293T cells transfected with hTAS2R16 were seeded onto 96-well black-wall CellBind surface plates (Corning, NY, USA) for 18–24 h before use. […] The cells were incubated in the dark for 30 min at 37 °C, and then for 15 min at 27 °C in assay buffer consisting of Calcium-4 (FLIPR Calcium 4 Assay Kit, Molecular Devices) and probenecid or the umami compounds. […] The relative changes in cell Ca^2+ were plotted as ΔF/F0 on the y-axis, where ΔF is the change in Calcium-4 fluorescence intensity at each time point and F0 is the fluorescence intensity before treatment. The relative response induced by 10 mM salicin was assigned a value of 100.
Cells were seeded onto 96-well black-wall imaging plates (BD Falcon Labware) for 18–26 h prior to their use in an experiment. […] The cells were rinsed with the buffer, incubated in probenecid or sample for 30 min, and then treated with solution containing the ligand. The Fura-2AM-induced fluorescence intensity (excitation at 340 and 380 nm) was measured at emission wavelength of 510 nm using a computer-controlled filter changer (Lambda DG4; Sutter, San Rafael, CA, USA), an Andor Luca CCD camera (Andor Technology, Belfast, UK), and an inverted fluorescence microscope (IX-71; Olympus, Tokyo, Japan). Images were obtained at 3-s intervals and analyzed using MetaFluor software (Molecular Devices, Sunnyvale, CA, USA).

[7] = molecular target: T2, hTAS2R16 N96T (Homo sapiens, UniProt Q9NYV7, N96T); assay: Cellular Ca2+ response, cell-based assay in HEK293T cells expressing probenecid-insensitive mutant hTAS2R16 N96T; details: Table 3
T2 construct: expressed in transfected cells; host or cells: HEK293T
T2 sequence (Q9NYV7 1-291 N96T): T1 sequence (Q9NYV7 1-291) with N96T
Experimental: (§1) HEK293T cells were purchased from American Type Culture Collection (ATCC; Manassas, VA, USA) and cultured as described previously. The plasmids hTAS2R16 and G16αgust44 were constructed as described previously. G16αgust44 and hTAS2R16 were cloned into a cytomegalovirus promoter-based vector and expressed constitutively. Point mutants of N96T and P44T on hTAS2R16 clone and DNA sequencings were performed by Macrogen (Geumcheon-gu, Seoul, Korea). The hTAS2R16 or point mutant expression plasmid was co-transfected with G16αgust44 expression plasmid (4:1) into HEK293T cells using Lipofectamine 2000 (Invitrogen, Carlsbad, CA, USA).
(§2) The umami substances-induced changes in the cytosolic Ca^2+ concentration were measured using a FlexStation III microplate reader (Molecular Devices, Sunnyvale, CA, USA). HEK293T cells transfected with hTAS2R16 were seeded onto 96-well black-wall CellBind surface plates (Corning, NY, USA) for 18–24 h before use. […] The cells were incubated in the dark for 30 min at 37 °C, and then for 15 min at 27 °C in assay buffer consisting of Calcium-4 (FLIPR Calcium 4 Assay Kit, Molecular Devices) and probenecid or the umami compounds. Following treatment, the fluorescence intensity (excitation, 486 nm; emission, 525 nm) of the cell was measured. The relative changes in cell Ca^2+ were plotted as ΔF/F0 on the y-axis, where ΔF is the change in Calcium-4 fluorescence intensity at each time point and F0 is the fluorescence intensity before treatment. The relative response induced by 10 mM salicin was assigned a value of 100.

[8] = molecular target: T1, hTAS2R16; assay: Cellular Ca2+ response, cell-based assay (Calcium-4, FlexStation III) in HEK293T cells co-expressing wild-type hTAS2R16 and G16αgust44; details: for Maximal Response of salicin: Table 1; for Maximal Response of salicin, WT: Table 3; for mechanism of antagonism at hTAS2R16: from salicin concentration–response curves at graded antagonist concentrations; for IC50: means ± SEM
Experimental: as §1, §2

[9] = molecular target: T3, hTAS2R16 P44T (Homo sapiens, UniProt Q9NYV7, P44T); assay: Cellular Ca2+ response, cell-based assay in HEK293T cells expressing probenecid-insensitive mutant hTAS2R16 P44T; details: for Maximal Response of salicin, P44T: Table 3
T3 construct: expressed in transfected cells; host or cells: HEK293T
T3 sequence (Q9NYV7 1-291 P44T): T1 sequence (Q9NYV7 1-291) with P44T
Experimental: as §1, §2

[10] = system: umami taste; assay: Human sensory evaluation of umami taste (literature); format: in vivo; details: MSG vs Glu-Glu; from cited thresholds
[11] = system: umami taste; details: cited from earlier work
[12] = pretreatment with sample 0.3 mM

For Glu-Glu (peptide), the maximal Ca2+ response (ΔF/F0) to salicin (0-30 mM) in cells expressing hTAS2R16 with Glu-Glu at 0, 1, 3, 6 and 10 mM (0.54 at 0 mM); value at 10 mM Glu-Glu [1] was 0.33 ΔF/F0, the maximal Ca2+ response (ΔF/F0) to salicin in cells expressing wild-type hTAS2R16 after pretreatment with 6 mM Glu-Glu (0.54 without Glu-Glu) [2] was 0.4 ΔF/F0 and the maximal Ca2+ response (ΔF/F0) to salicin in cells expressing hTAS2R16 P44T after pretreatment with 6 mM Glu-Glu (0.62 without Glu-Glu) [3] was 0.42 ΔF/F0. For the same compound, the maximal Ca2+ response (ΔF/F0) to salicin in cells expressing hTAS2R16 N96T after pretreatment with 6 mM Glu-Glu (0.61 without Glu-Glu); the text says the inhibition by Glu-Glu is lost in this mutant [4] was 0.65 ΔF/F0.

For CCCN(CCC)S(=O)(=O)c1ccc(C(=O)O)cc1 [Probenecid, ρ-(dipropylsulfamoyl)benzoic acid], the IC50 [5] is given as 0.29 mM, the “inhibition of Ca2+ response to arbutin” value [6] is given as “inhibited” and the “inhibition of Ca2+ response to phenyl β-D-glucopyranoside” value [6] is given as “inhibited”. The “Maximal Response of salicin, N96T” value [7, 12] was 0.68 ΔF/F0, the “Maximal Response of salicin” value ([8]; pretreatment with sample 0.1 mM) was 0.47 ΔF/F0 and the “Maximal Response of salicin” value [8, 12] was 0.23 ΔF/F0. The “Maximal Response of salicin” value ([8]; pretreatment with sample 1 mM) was 0.07 ΔF/F0, the “Maximal Response of salicin, WT” value [8, 12] was 0.23 ΔF/F0 and the “mechanism of antagonism at hTAS2R16” value [8] was “full insurmountable antagonism”. For the same compound, the “attenuation of salicin response by pretreatment, WT receptor” value ([8]; salicin 0.003–30 mM, probenecid 0.3 mM, L-theanine 80 mM) was “significant attenuation”, the “Maximal Response of salicin, P44T” value [9, 12] was 0.58 ΔF/F0 and the “attenuation of salicin response by pretreatment, P44T mutant” value ([9]; salicin 0.003–30 mM, probenecid 0.3 mM, MSG 80 mM, L-theanine 80 mM) was “not in cells expressing the two mutants”.

For N[C@@H](CCC(=O)O)C(=O)O [MSG, L-glutamic acid monosodium salt hydrate], the “inhibition of Ca2+ response to arbutin” value [6] was “significantly inhibited”, the “reduction of intracellular Ca2+ influx evoked by salicin” value ([6]; 10 mM salicin, MSG 10 and 80 mM, IMP 10 and 20 mM, L-theanine 10 and 80 mM, probenecid 0.1 and 0.3 mM) was “concentration-dependent reduction” and the “inhibition of Ca2+ response to phenyl β-D-glucopyranoside” value [6] was “significantly inhibited”. The “Maximal Response of salicin, N96T” value ([7]; pretreatment with sample 80 mM) was 0.65 ΔF/F0, the “umami taste threshold, times lower than Glu-Glu” value [10] was “around 10 times” and the “synergistic effect with IMP on suppression of salicin response” value ([8]; 10 mM salicin, graded IMP below or at 10 mM) was “produce similar synergistic effects with IMP”. For the same compound, the IC50 ([8]; IC50 in the presence of 10 mM salicin, Table 2, + IMP 0 mM) was 64.67 ± 0.04 mM, the IC50 ([8]; IC50 of umami substances in the presence of 10 mM salicin, Figure 2B, pretreatment with sample, fixed 10 mM salicin) was 51 mM and 51.1 mM and the “Maximal Response of salicin” value ([8]; pretreatment with sample 10 mM) was 0.55 ΔF/F0. For the same compound, the “Maximal Response of salicin” value ([8]; pretreatment with sample 30 mM) was 0.54 ΔF/F0, the “Maximal Response of salicin” value ([8]; pretreatment with sample 80 mM) was 0.49 ΔF/F0 and the “Maximal Response of salicin” value ([8]; pretreatment with sample 100 mM) was 0.47 ΔF/F0. The “Maximal Response of salicin, WT” value ([8]; pretreatment with sample 80 mM) was 0.49 ΔF/F0, the “mechanism of antagonism at hTAS2R16” value [8] was “surmountable antagonist” and the “increase of the EC50 of salicin” value ([8]; sample at highest concentration, 100 mM) was 8.5 fold. The “Maximal Response of salicin, P44T” value ([9]; pretreatment with sample 80 mM) was 0.57 ΔF/F0, the detection threshold [11] was 0.7 mM and the “umami taste intensity (relative)” value ([11]; enhancing umami taste intensity, MSG = 1.0) was 1.0. For the same compound, the umami taste threshold ([11]; human sensory evaluation studies) was 30 mg%.
